# Results as given in patent US11117919B2, “Icariside compound, preparation method thereof, and application thereof” (FOSHAN GOLDEN HEALTH TECHNOLOGY CO., LTD., priority 2015, dated 2021).
# Entries after “also recorded” stand apart in the source; their conditions may differ.
# Key:
# [1] = test system: PBMCs from healthy human; test: IFN-γ production by PBMCs of healthy human cultured with icariside I (Example 9); type: cell-based; conditions: 0.1, 0.5, 1 μg/ml, 48 h
# Protocol: (1) Isolation of human peripheral blood mononuclear cells (PBMCs): according to the method stated in Example 5 (2), normal human peripheral blood PBMCs were prepared.
# (3) PBMCs and PFMCs cell culture (MLC) with stimulation by a pharmaceutical: Icariside I was used at concentrations of 0.1 μg/ml, 0.5 μg/ml, and 1 μg/ml respectively to stimulate PBMCs and PFMCs under the incubation condition at 37° C. with 5% CO2 for 48 hours.
# (4) ELISA assay for analysis of IFN-γ: according to the method stated in Example 5 (4), the levels of γ-interferon produced by PBMCs and PFMCs after culture with pharmaceutical stimulations were measured.
# PBMCs from healthy human and PFMCs from TB infected patients were respectively cultured for 2 days (48 h), then added or not added with the pharmaceutical icariside I (at a gradient of different concentrations). […] Among the tests, the concentrations of icariside I added were 0.1, 0.5 and 1 μg/ml. *P<0.05; **-***P<0.01.
# [2] = test system: xenograft tumor; test: Xenograft tumor growth in nude mice; type: in vivo, BALB/c (nu/nu) female nude mice; conditions: intraperitoneal 0.02 and 0.1 mg/10 g every 2 days, 30-day period
# Protocol: The test used 4-6 weeks old BALB/c (nu/nu) female nude mice weighed 18-22 g fed in a SPF clean room with free access to food and water. […] When the tumor grew to the initial volume for administration with a pharmaceutical (100 mm^3), these mice were divided into groups with 10 mice for each group. For each group, nude mice were injected intraperitoneally: (1) the blank control group was injected with 0.1 ml/10 g solvent (5% DMSO+95% physiological saline); […] The administration was conducted every 2 days in a 30-day period. Vernier caliper was used to measure the largest longitudinal diameter (L) and transverse diameter (S) of tumor every two days. The approximate volume of the tumor was calculated with the equation of V (cm^3)=0.5×L× S^2 to plot a tumor growth curve. After the pharmaceutical treatment, the tumor was stripped and weighed for record.
# [3] = test system: normal human peripheral blood mononuclear cells (PBMCs); test: IFN-γ production by PBMCs stimulated with Anti-CD3 (ELISA); type: cell-based; conditions: PBMCs treated with anti-CD3 (1 μg/ml); icariside I 1, 10, 100 ng/ml; 12-48 h; time and dose dependent
# Protocol: Effect of icariside I on promoting normal human peripheral blood mononuclear cells (PBMCs subjected to mAb treatment) to produce γ-interferon (interferon-gamma, IFN-γ) (an experimental model mimicking enhancing immunity in human body).
# (1) Preparation of icariside I solution for the test. 10 mg icariside I was dissolved in 1 ml DMSO (with initial concentration of 10 mg/ml). The solution was then transferred into small vials and stored in a freezer at −80° C. for future use.
# The whole blood samples were drawn from peripheral vein of healthy volunteers. Heparin (blood:heparin=10 ml: 80 μl) was used for anticoagulation. Then, it is diluted with equal volume of Hank's solution. The diluted blood samples were slowly laid on the Ficoll separation solution (Ficoll to diluted blood ratio is 3:4) followed by Ficoll density gradient centrifugation (22° C. 2200 r/min, 20 min). After centrifugation, samples were divided into three layers in the tube. At the interface between the top and middle layers, there was a narrow band which is a mononuclear cell-based yellow-white cloud layer. The peripheral blood mononuclear cells (PBMCs) were drawn and transferred into another centrifuge tube with a pipette. […] The mononuclear cells were counted with trypan blue solution. […]
# The collected cell culture supernatants with different culture time were detected with ELISA to measure the amount of cytokine IFN-γ produced. […]
# [4] = type: in vivo; conditions: observation for 14 days
# Protocol: Mice weighed 18-22 grams were randomly divided into six groups with 10 mice each group. Each individual group of mice were treated (orally) with: physiological saline, DMSO 2.5 ml/kg, and icariside I: 2000 mg/kg, 1000 mg/kg, 500 mg/kg, 100 mg/kg respectively. […] Therefore, the acute toxicity of icariside I is very low which is safe for use in preparation of pharmaceuticals, health products, food, and cosmetic and skin care products for prevention and treatment of immunity-related diseases.
smiles,measurement,setting,value
COc1ccc(-c2oc3c(CC=C(C)C)c(O[C@@H]4O[C@H](CO)[C@@H](O)[C@H](O)[C@H]4O)cc(O)c3c(=O)c2O)cc1 [icariside I],effect on PBMCs in producing IFN-γ,[1],no significant promoting effect
same,growth and development of the transplanted tumor mass in nude mice,[2],significantly inhibit
same,IFN-γ level produced by PBMCs,[3],significantly enhanced; also recorded: significantly increased
same,acute toxicity LD50,"[4]; mice, oral",greater than 2000 mg/kg
same,deaths of test mice,[4]; oral 100-2000 mg/kg,none of the test mice died
